According to PubChem BioAssay (NCI):
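Cultured in 96-well plates, cells were exposed to test compound for 48 hours across five concentrations. TGI: total growth inhibition.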

Assays:
Assay in all cases: growth of human tumour cells (NCI), 48 h
MOLT-4 leukemia = test system: MOLT-4 leukemia
NCI-H460 lung = test system: NCI-H460 lung
NCI-H23 lung = test system: NCI-H23 lung
MALME-3M melanoma = test system: MALME-3M melanoma
OVCAR-3 ovarian = test system: OVCAR-3 ovarian
SK-MEL-2 melanoma = test system: SK-MEL-2 melanoma
M14 melanoma = test system: M14 melanoma
K-562 leukemia = test system: K-562 leukemia
OVCAR-8 ovarian = test system: OVCAR-8 ovarian
SW-620 colon = test system: SW-620 colon

Q: Which TGI (MOLT-4 leukemia) does the source give for CCCCCCOC(=O)/C=C/[C@]1(CO)C/C(=C/CC(C(C)C)C(C)C)C(=O)O1 here?
A: 25.6 µM

Q: And the TGI (NCI-H460 lung)?
A: 20.5 µM

Q: And the TGI (NCI-H23 lung)?
A: 25 µM

Q: What about the TGI (MALME-3M melanoma) of the same compound?
A: 25.7 µM

Q: And the TGI (OVCAR-3 ovarian)?
A: 29.8 µM

Q: What about the TGI (SK-MEL-2 melanoma) of the same compound?
A: 30.7 µM

Q: And the TGI (M14 melanoma)?
A: 25.1 µM

Q: And the TGI (K-562 leukemia)?
A: 31.2 µM

Q: And the TGI (OVCAR-8 ovarian)?
A: 31.6 µM

Q: And the TGI (SW-620 colon)?
A: 27.7 µM

Q: Which results are given for CN1CCN(C(=S)N2CCN(C)CC2)CC1?
A: TGI (MOLT-4 leukemia): > 100 µM; TGI (NCI-H460 lung): > 21.8 µM; TGI (NCI-H23 lung): > 100 µM; TGI (MALME-3M melanoma): > 100 µM; TGI (OVCAR-3 ovarian): > 100 µM; TGI (SK-MEL-2 melanoma): > 100 µM; TGI (M14 melanoma): > 100 µM; TGI (K-562 leukemia): > 100 µM; TGI (OVCAR-8 ovarian): > 100 µM; TGI (SW-620 colon): > 100 µM

Q: CCCCCCc1cc2cc(C(=O)Nc3ccccc3)c(=N)oc2cc1O was tested. Which TGI (MOLT-4 leukemia) did it give?
A: 8.79 µM

Q: What about the TGI (NCI-H460 lung) of the same compound?
A: > 100 µM

Q: What about the TGI (NCI-H23 lung) of the same compound?
A: 10.6 µM

Q: And the TGI (MALME-3M melanoma)?
A: 5.6 µM

Q: What about the TGI (OVCAR-3 ovarian) of the same compound?
A: 5.1 µM

Q: And the TGI (SK-MEL-2 melanoma)?
A: 14.7 µM

Q: What about the TGI (M14 melanoma) of the same compound?
A: > 29.4 µM

Q: What about the TGI (K-562 leukemia) of the same compound?
A: > 100 µM

Q: And the TGI (OVCAR-8 ovarian)?
A: > 49.6 µM

Q: What about the TGI (SW-620 colon) of the same compound?
A: > 100 µM

Q: What does the source list for N#Cc1c(N)nc2n[nH]c(N)c2c1-c1ccc(Cl)cc1?
A: TGI (MOLT-4 leukemia): > 100 µM; TGI (NCI-H460 lung): > 96.7 µM; TGI (NCI-H23 lung): 29.8 µM; TGI (MALME-3M melanoma): 8.69 µM; TGI (OVCAR-3 ovarian): 18.2 µM; TGI (SK-MEL-2 melanoma): 6.57 µM; TGI (M14 melanoma): > 39.8 µM; TGI (K-562 leukemia): > 100 µM; TGI (OVCAR-8 ovarian): > 50.8 µM; TGI (SW-620 colon): > 100 µM

Q: With CCOC1OC(=O)c2cc3ccc4c(c3c(-c3ccc5c(c3)OCO5)c21)OCO4 (stereo not given) as the compound, how does the TGI (MOLT-4 leukemia) read?
A: > 100 µM

Q: And the TGI (NCI-H460 lung)?
A: 28.1 µM

Q: And the TGI (NCI-H23 lung)?
A: > 55.3 µM

Q: And the TGI (MALME-3M melanoma)?
A: > 100 µM

Q: What about the TGI (OVCAR-3 ovarian) of the same compound?
A: 3.77 µM

Q: And the TGI (SK-MEL-2 melanoma)?
A: > 100 µM

Q: And the TGI (M14 melanoma)?
A: 79.3 µM

Q: What about the TGI (K-562 leukemia) of the same compound?
A: > 100 µM

Q: And the TGI (OVCAR-8 ovarian)?
A: > 100 µM

Q: What about the TGI (SW-620 colon) of the same compound?
A: > 100 µM

Q: Which results are given for CC1OC(OC2C(O)COC(OC3C(C)OC(OC4C(OC(=O)[C@]56CCC(C)(C)C[C@@H]5C5=CCC7[C@@]8(C)C[C@H](O)[C@H](OC9OC(CO)C(O)C(O)C9O)[C@@](C)(CO)[C@@H]8CC[C@@]7(C)[C@]5(C)CC6)OCC(O)C4O)C(O)C3OC3OCC(O)(CO)C3O)C2O)C(O)C(O)C1O (stereo not given in full)?
A: TGI (MOLT-4 leukemia): 46.5 µM; TGI (NCI-H460 lung): 42.2 µM; TGI (NCI-H23 lung): 27.1 µM; TGI (MALME-3M melanoma): 33.8 µM; TGI (OVCAR-3 ovarian): 40.8 µM; TGI (SK-MEL-2 melanoma): 30.8 µM; TGI (M14 melanoma): 10.4 µM; TGI (K-562 leukemia): > 75 µM; TGI (OVCAR-8 ovarian): 40.4 µM; TGI (SW-620 colon): 31.6 µM

Q: CC12CC(c3ccccc3O1)C(C(=O)Nc1ccc(Cl)cc1Cl)C(=O)N2 (stereo not given) was tested. Which TGI (MOLT-4 leukemia) did it give?
A: 54.5 µM

Q: What about the TGI (NCI-H460 lung) of the same compound?
A: > 100 µM

Q: And the TGI (NCI-H23 lung)?
A: > 100 µM

Q: What about the TGI (MALME-3M melanoma) of the same compound?
A: 89.8 µM

Q: And the TGI (OVCAR-3 ovarian)?
A: > 100 µM

Q: What about the TGI (SK-MEL-2 melanoma) of the same compound?
A: > 100 µM

Q: And the TGI (M14 melanoma)?
A: 31.9 µM

Q: And the TGI (K-562 leukemia)?
A: > 100 µM

Q: What about the TGI (OVCAR-8 ovarian) of the same compound?
A: 30.6 µM

Q: And the TGI (SW-620 colon)?
A: > 100 µM

Q: How did the TGI (MOLT-4 leukemia) turn out when CSc1nc(Nc2cccc(C(F)(F)F)c2)c2c(N)nn(C)c2n1 was run?
A: > 100 µM

Q: What about the TGI (NCI-H460 lung) of the same compound?
A: > 100 µM

Q: And the TGI (NCI-H23 lung)?
A: > 100 µM

Q: What about the TGI (MALME-3M melanoma) of the same compound?
A: > 100 µM

Q: And the TGI (OVCAR-3 ovarian)?
A: > 100 µM

Q: And the TGI (SK-MEL-2 melanoma)?
A: > 100 µM

Q: What about the TGI (M14 melanoma) of the same compound?
A: > 100 µM

Q: And the TGI (K-562 leukemia)?
A: > 100 µM

Q: What about the TGI (OVCAR-8 ovarian) of the same compound?
A: > 100 µM

Q: And the TGI (SW-620 colon)?
A: > 100 µM
